Assay results reported in publication PMC12070314, “Efficient Small-Molecule Reversal Agents for Anticoagulant Fondaparinux” (ACS Pharmacology & Translational Science, 2025).

Columns and labels:
A549 cells = assay: MTT cell viability assay; format: cell-based; details: A549, concentrations <100 μM
Procedure: (§1) A549 and HeLa cells were maintained in DMEM ([…] glucose, Sigma) containing 10% fetal calf serum (FCS), 2 mM glutamine, 50 U/mL penicillin, and […] streptomycin at 37 °C under a 5% CO2 atmosphere. HMEC-1 and fibroblast cells were maintained in MCDB 131 medium (GIBCO) containing 10% fetal calf serum (FCS), 2 mM glutamine, 50 U/mL penicillin, and […] streptomycin at 37 °C under a 5% CO2 atmosphere.
(§2) The viability of A549 and HeLa cells was tested using the 3-(4,5-dimethylthiazol-2-yl)-2,5-diphenyltetrazolium bromide (MTT) assay. In it, exponentially growing cells were detached from the culture flasks using a trypsin–0.25% EDTA solution, and the cell suspension was seeded onto a 96-well plate (Nunclon) at a concentration of 9k cells/well. The toxicity of 3AC and 3FF was tested as follows: 24 h after seeding, culture medium was discarded and replaced by compound solution in PBS that was diluted with cell culture medium to the final concentration: [3××] = 10 to 100 μM. MTT (0.5 mg/mL) was added. […] Absorbance was measured at 570 nm using a spectrophotometric BioTek Synergy 2 Microplate Reader (Agilent), 30 min after the addition of DMSO. Cell viability is expressed as an absorbance percent ratio of cells treated with compound to untreated cells, which were used as a control. The results are the average from three independent experiments.

HeLa cells = assay: MTT cell viability assay; format: cell-based; details: concentrations <100 μM
Procedure: as §1, §2

[1] = NMR titration and DOSY binding study with fondaparinux; details: water (D2O buffer), neutral pH
Description: The [3AC–fond] binding was additionally studied by NMR. Titration of fond with 3AC modifies several ^1H and ^13C NMR signals that can be readily monitored by ^1H and ^1H–^13C HSQC NMR experiments (Figures and S5–S7). A close analysis of the corresponding chemical-shift perturbations (Figures C and S8) allows determination of the sugar rings to be more affected by the presence of the ligand (see the chemical structure with arbitrary labeling of the rings in Figure A). We hypothesized that [fond–3AC] binding occurs by polar interactions (through the ammonium and OH groups of 3AC with sulfate, carboxylate, and OH residues of fond) and nonpolar contacts (by CH–π interactions between aromatic rings of 3AC and pyranose CH bonds of fond). […] The corresponding ^1H NMR spectra in 90% H2O/10% D2O at pH 8.2 and 288 K allow detection of the NH-sulfamate protons (Figures D and S9) and confirmed the stronger perturbation of ring V. The conformational behavior of fond in the absence and presence of 3AC was additionally studied by acquiring a series of 2D NOESY and 2D ROESY spectra (Figures S10–S13). […]
One- and two-dimensional (1D and 2D) NMR experiments were performed at 298 K on a 500 MHz Bruker AVANCE III HD instrument equipped with a z-gradient (65.7 G cm^–1) inverse TCI-cryoprobe. Samples were dissolved in 5 mM Tris-d11 buffer with 50 mM NaCl (in D2O, pH 7.5, uncorrected pH meter reading). […]

[2] = earlier work of the authors; reference number not given; read-out: Apparent affinity for heparin, K D^app; cited from earlier work

| Binding to fond by NMR [1] | Compound | Cell viability (toxicity) (A549 cells) | Cell viability (toxicity) (HeLa cells) | Kd [2] [nM] |
| --- | --- | --- | --- | --- |
| strong binding | Oc1ccccc1CNCCCNCCCCNCCCNCc1ccc2c(c1)Cc1ccccc1-2 [Compound 3AC] | low to acceptable cell toxicity | low to acceptable cell toxicity | ~500 |
| slightly weaker binding | Oc1ccc2ccccc2c1CNCCCNCCCCNCCCNCc1c(O)ccc2ccccc12 [Compound 3FF] | low to acceptable cell toxicity | low to acceptable cell toxicity | – |
